Columns and labels:
Plasmodium falciparum [1] = test: Antimalarial activity against chloroquine, mefloquine and pyrimethamine-resistant Plasmodium falciparum TM91C235 by SYBR green I staining-based fluorescence assay; type: functional, organism-based
Plasmodium falciparum [2] = test: Resistance index, ratio of EC50 for chloroquine, mefloquine and pyrimethamine-resistant Plasmodium falciparum TM91C235 to EC50 for chloroquine-sensitive Plasmodium falciparum D6; type: functional
Plasmepsin II = Plasmepsin II (Plasmodium falciparum, UniProt P46925); test: Inhibition of Plasmodium falciparum plasmepsin 2
Plasmodium falciparum [3] = test: Antimalarial activity against chloroquine-sensitive Plasmodium falciparum D6 by SYBR green I staining-based fluorescence assay; type: functional, organism-based
Plasmodium falciparum [4] = test: Antimalarial activity against chloroquine and pyrimethamine-resistant mefloquine-sensitive Plasmodium falciparum W2 by SYBR green I staining-based fluorescence assay; type: functional, organism-based
Plasmodium falciparum [5] = test: Resistance index, ratio of EC50 for chloroquine and pyrimethamine-resistant mefloquine-sensitive Plasmodium falciparum W2 to EC50 for chloroquine-sensitive Plasmodium falciparum D6; type: functional

Chain of Plasmepsin II (P46925 whole entry): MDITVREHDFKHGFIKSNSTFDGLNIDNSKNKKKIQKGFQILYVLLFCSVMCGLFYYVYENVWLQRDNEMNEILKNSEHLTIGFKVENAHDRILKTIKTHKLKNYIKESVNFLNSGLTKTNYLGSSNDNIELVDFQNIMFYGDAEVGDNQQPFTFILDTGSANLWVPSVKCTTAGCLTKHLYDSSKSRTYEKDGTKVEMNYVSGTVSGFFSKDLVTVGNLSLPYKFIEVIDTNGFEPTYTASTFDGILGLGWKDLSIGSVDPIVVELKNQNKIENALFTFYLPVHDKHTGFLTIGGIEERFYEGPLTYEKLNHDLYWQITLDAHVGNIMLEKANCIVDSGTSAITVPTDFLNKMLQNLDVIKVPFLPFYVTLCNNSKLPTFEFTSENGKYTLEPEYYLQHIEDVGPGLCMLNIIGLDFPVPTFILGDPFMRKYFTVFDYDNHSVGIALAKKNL

Compound	EC50 (Plasmodium falciparum [1])	Ratio EC50 (Plasmodium falciparum [2])	Ki (Plasmepsin II)	EC50 (Plasmodium falciparum [3])	EC50 (Plasmodium falciparum [4])	Ratio EC50 (Plasmodium falciparum [5])
CNCCN(C)c1cc(C)c(OCC(=O)N[C@@H](Cc2ccccc2)[C@H](O)C(=O)N2CSC(C)(C)[C@H]2C(=O)N[C@H]2c3ccccc3C[C@H]2O)c(C)c1	860 nM	4.5				
CCNCCNc1cc(C)c(OCC(=O)N[C@@H](Cc2ccccc2)[C@H](O)C(=O)N2CSC(C)(C)[C@H]2C(=O)N[C@H]2c3ccccc3C[C@H]2O)c(C)c1	1900 nM	8.6				
Cc1cc(NCCCl)cc(C)c1OCC(=O)N[C@@H](Cc1ccccc1)[C@H](O)C(=O)N1CSC(C)(C)[C@H]1C(=O)N[C@H]1c2ccccc2C[C@H]1O		<=2	5.5 nM			
COC(CNc1cc(C)c(OCC(=O)N[C@@H](Cc2ccccc2)[C@H](O)C(=O)N2CSC(C)(C)[C@H]2C(=O)N[C@H]2c3ccccc3C[C@H]2O)c(C)c1)OC		<=2	11 nM	850 nM		
CCOP(=O)(CCNc1cc(C)c(OCC(=O)N[C@@H](Cc2ccccc2)[C@H](O)C(=O)N2CSC(C)(C)[C@H]2C(=O)N[C@H]2c3ccccc3C[C@H]2O)c(C)c1)OCC		<=2	22 nM	600 nM		
Cc1cccc(CNc2cc(C)c(OCC(=O)N[C@@H](Cc3ccccc3)[C@H](O)C(=O)N3CSC(C)(C)[C@H]3C(=O)N[C@H]3c4ccccc4C[C@H]3O)c(C)c2)n1		<=2	4.4 nM			
Cc1cc(NCc2c[nH]cn2)cc(C)c1OCC(=O)N[C@@H](Cc1ccccc1)[C@H](O)C(=O)N1CSC(C)(C)[C@H]1C(=O)N[C@H]1c2ccccc2C[C@H]1O		<=2	4.8 nM			
Cc1cc(NCc2ccnc3ccccc23)cc(C)c1OCC(=O)N[C@@H](Cc1ccccc1)[C@H](O)C(=O)N1CSC(C)(C)[C@H]1C(=O)N[C@H]1c2ccccc2C[C@H]1O		<=2	1.7 nM	500 nM		
Cc1cc(NC(=O)CN)cc(C)c1OCC(=O)N[C@@H](Cc1ccccc1)[C@H](O)C(=O)N1CSC(C)(C)[C@H]1C(=O)N[C@H]1c2ccccc2C[C@H]1O			1.2 nM			
Cc1cc(NC(=O)CCN)cc(C)c1OCC(=O)N[C@@H](Cc1ccccc1)[C@H](O)C(=O)N1CSC(C)(C)[C@H]1C(=O)N[C@H]1c2ccccc2C[C@H]1O	730 nM	2.8	2.3 nM	260 nM		
Cc1cc(NC(=O)CCCN)cc(C)c1OCC(=O)N[C@@H](Cc1ccccc1)[C@H](O)C(=O)N1CSC(C)(C)[C@H]1C(=O)N[C@H]1c2ccccc2C[C@H]1O	1300 nM	0.41	1.1 nM	3200 nM		
Cc1cc(NC(=O)CCCCN)cc(C)c1OCC(=O)N[C@@H](Cc1ccccc1)[C@H](O)C(=O)N1CSC(C)(C)[C@H]1C(=O)N[C@H]1c2ccccc2C[C@H]1O	620 nM	0.34	1 nM	1800 nM		
Cc1cc(NC(=O)CCCCCN)cc(C)c1OCC(=O)N[C@@H](Cc1ccccc1)[C@H](O)C(=O)N1CSC(C)(C)[C@H]1C(=O)N[C@H]1c2ccccc2C[C@H]1O	720 nM	0.28	5.7 nM	2600 nM		
Cc1cc(NC(=O)CN2CCOCC2)cc(C)c1OCC(=O)N[C@@H](Cc1ccccc1)[C@H](O)C(=O)N1CSC(C)(C)[C@H]1C(=O)N[C@H]1c2ccccc2C[C@H]1O			4.3 nM			
Cc1cc(NCc2ccccn2)cc(C)c1OCC(=O)N[C@@H](Cc1ccccc1)[C@H](O)C(=O)N1CSC(C)(C)[C@H]1C(=O)N[C@H]1c2ccccc2C[C@H]1O					730 nM	1.3
